According to patent US20210015764A1, “METHODS OF REDUCING INFLAMMATION OF THE DIGESTIVE SYSTEM WITH INHIBITORS OF HIF-2- ALPHA” (Peloton Therapeutics Inc., priority 2018, published 2021):
Read-outs that look alike come from different tables or passages of the source.

How the values were obtained:
[1] = system: 786-O cells; assay: VEGF ELISA assay; type: cell-based; details: Homo sapiens, 786-0, VEGF in culture medium
Method: Each concentration was plated in duplicate. About 20 hours later, medium was removed by suction and each well was supplied with 180 μL of growth medium. About 20 μl freshly-made 10× compound stocks were added to each well. […] The EC50 was calculated by GraphPad Prism using the dose-response-inhibition (four parameter) equation. The cell-seeded plate was then subjected to CellTiter-Glo luminescence cell viability assay (Promega) by adding 50 μL of Celltiter Glo reagent into each well and shaking the plate for 8 minutes at 550 rpm (Thermomixer R, Eppendorf) then the luminescence signal immediately read in a plate reader (3 second delay, 0.5 second/well integration time, Synergy 2 multi Detection Microplate reader).

[2] = system: 786-O-Hif-Luc cells; assay: Luciferase assay (HIF responsive element reporter); details: 24 h
Method: A pool of infected cells were then selected against 2 g/mL of puromycin (P8833, Sigma) for 10 days followed by limited dilution to select single clones.
Each concentration was tested in triplicate. After about 24 hours, luciferase activity was determined using ONE-Glo Luciferase Assay Reagent (E6110, Promega) following the manufacturer's recommended procedure. EC50 were calculated using Dotmatics software.

[3] = target: T1, HIF-2α HIS TAG-PASB Domain (Homo sapiens, UniProt Q99814); assay: HIF-2α Scintillation Proximity Assay (SPA); type: binding
T1 construct: 100 nM HIF-2α HIS TAG-PASB Domain
Method: The total assay volume was about 100 μL in the following configuration: 2 μL compound in 100% DMSO, 88 μL buffer with protein and probe and 10 μL of SPA beads. […] The percent inhibition was determined and IC50 values were calculated using the Dotmatics system based on the following equation: % inhibition=[(high control−sample)/(high control−low control)]×100.

[4] = system: DSS induced colitis; assay: DSS-induced model of colitis, two DSS cycles (Example 12); type: in vivo; details: female C57BI6 mice, Compound 231 60 mg/kg BID, filgotinib 30 mg/kg QD; for colon length: day 27
Method: 6-8 week old female C57BI6 mice were tagged and weighed, then treated with 2% dextran sulfate sodium (DSS) for 6 days. A 2 week recovery phase of regular water was completed over days 7-19. […] Mice were monitored daily and scored for body weight loss, stool consistency/diarrhea, and blood in the feces/rectum. The disease activity index was calculated according to Table 4. The second DSS cycle and treatment regimen continued for 7 days, and then on day 27 the animals were sacrificed. Colons were harvested and the texture, appearance and length of the colons assessed. Colon tissues were prepared for H&E histology, immune gene expression analysis, and immune phenotyping of immune cell infiltrate by flow cytometry. [table]

[5] = read-out: Mean Luciferase EC50 (nM)
[6] = read-out: Mean Luciferase EC50 (nM), 786-O-Hif-Luc cells, about 24 hours
[7] = probe displacement from HIF-2α PAS-B domain, read-out: Scintillation Proximity Assay IC50

T1 sequence (Q99814 240-350 limits assumed): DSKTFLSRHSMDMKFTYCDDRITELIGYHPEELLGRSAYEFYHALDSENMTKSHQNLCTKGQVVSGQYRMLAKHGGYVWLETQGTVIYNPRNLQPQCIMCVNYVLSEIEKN

Row | SMILES | EC50 [2, 5] | further results
1 | O=S(=O)(c1ccc(Oc2cc(F)cc(Cl)c2)c2c1[C@H](O)CC2)C(F)F [Compound 1] | – | EC50 [1]: 0.25 to 1 µM
2 | C[C@H]1C[C@@H](O)c2c(S(=O)(=O)C(F)F)ccc(Oc3cc(F)cc(Cl)c3)c21 [Compound 7a] | 250 to 1000 nM | –
3 | O=S(=O)(c1ccc(Oc2cc(F)cc(Cl)c2)c2c1C(O)CC2)C(F)F (stereo not shown) [Compound 17] | – | EC50 [1]: 0.05 to 0.249 µM
4 | O=S(=O)(c1ccc(Oc2cc(F)cc(Cl)c2)c(Cl)c1CO)C(F)F [Compound 41] | 250 to 1000 nM | EC50 [1]: 0.25 to 1 µM
5 | COCc1c(S(=O)(=O)C(F)F)ccc(Oc2cc(F)cc(Cl)c2)c1Cl [Compound 44] | – | IC50 [3]: > 1 µM
6 | N#Cc1cc(F)cc(Oc2ccc(S(=O)(=O)C(F)(F)F)c3c2CC[C@H]3O)c1 [Compound 57] | 50 to 249 nM | –
7 | N#Cc1ccc(Oc2cc(F)cc(F)c2)c2c1[C@H](O)C(F)(F)C2 [Compound 67] | – | EC50 [1]: 0.05 to 0.249 µM
8 | N#Cc1cc(F)cc(Oc2ccc(S(=O)(=O)C(F)F)c3c2CCC3O)c1 (stereo not shown) [Compound 78] | – | EC50 [1]: 0.25 to 1 µM
9 | O=S(=O)(c1ccc(Oc2cc(F)cc(Cl)c2)c(C(F)F)c1)C(F)(F)F [Compound 124] | 250 to 1000 nM | EC50 [1]: 0.25 to 1 µM
10 | N#Cc1cc(F)cc(Oc2ccc(S(=O)(=O)C(F)F)c3c2CC[C@H]3O)c1 [Compound 155] | 50 to 249 nM | EC50 [1]: 0.05 to 0.249 µM
11 | N#Cc1cccc(Oc2ccc(S(=O)(=O)C(F)F)c3c2CC[C@H]3O)c1 [Compound 156] | 250 to 1000 nM | –
12 | CS(=O)(=O)c1ccc(Oc2cc(F)cc(C#N)c2)c2c1[C@H](O)C(F)(F)C2 [Compound 163, (S)-3-((2,2-difluoro-1-hydroxy-7-(methylsulfonyl)-2,3-dihydro-1H-inden-4-yl)oxy)-5-fluorobenzonitrile] | < 50 nM | –
13 | CS(=O)(=O)c1ccc(Oc2cc(F)cc(C#N)c2)c2c1[C@H](N)C(F)(F)C2 [Compound 165] | 50 to 249 nM | –
14 | N#Cc1cc(Cl)cc(Oc2ccc(S(=O)(=O)CF)c3c2CC(F)(F)[C@H]3O)c1 [Compound 167] | < 50 nM | –
15 | CCS(=O)(=O)c1ccc(Oc2cc(F)cc(C#N)c2)c2c1[C@H](O)C(F)(F)C2 [Compound 206] | 50 to 249 nM | –
16 | CS(=O)(=O)c1ccc(Oc2cc(F)cc(C#N)c2)c2c1C(O)C(F)(F)C2 (stereo not shown) [Compound 223] | 50 to 249 nM | –
17 | CS(=O)(=O)c1ccc(Oc2cc(F)cc(C#N)c2)c2c1[C@@H](O)C(F)(F)C2 [Compound 226] | > 1000 nM | –
18 | N#Cc1cc(F)cc(Oc2ccc(S(=O)(=O)C(F)(F)F)c3c2C[C@@H](F)[C@H]3O)c1 [Compound 227] | – | EC50 [2, 6]: < 50 nM

Row | SMILES | EC50 [2, 5] | further results
19 | [2H]C([2H])([2H])S(=O)(=O)c1ccc(Oc2cc(F)cc(C#N)c2)c2c1[C@]([2H])(O)C(F)(F)C2 [Compound 229] | < 50 nM | –
20 | CS(=O)(=O)c1ccc(Oc2cc(F)cc(C#N)c2)c2c1[C@H](O)[C@H](F)C2 [Compound 231] | < 50 nM | colon length [4]: greatest improvement in colon length
21 | CS(=O)(=O)c1ccc(Oc2cc(F)cc(C#N)c2)c2c1C(O)C(F)C2 (stereo not shown) [Compound 232] | < 50 nM | –
22 | CS(=O)(=O)c1ccc(Oc2cc(Cl)cc(C#N)c2)c2c1[C@H](O)C(F)(F)C2 [Compound 234] | < 50 nM | EC50 [1]: 0.05 to 0.249 µM
23 | N#Cc1cncc(Oc2ccc(S(=O)(=O)C(F)(F)F)c3c2CC(F)(F)[C@H]3O)c1 [Compound 235] | < 50 nM | –
24 | O=S(=O)(c1ccc(OC2=CC=CN3CC=NC23)c2c1C(O)C(F)(F)C2)C(F)(F)F (stereo not shown) [Compound 246] | – | IC50 [3, 7]: > 1 µM
25 | O=S(=O)(c1ccc(Oc2cc(F)cc(Cl)c2)c2c1[C@H](O)C[C@@H]2CO)C(F)(F)F [Compound 281] | – | IC50 [3, 7]: 0.25 to 1 µM
26 | CS(=O)(=O)c1ccc(Oc2cc(F)cc(C#N)c2)c2c1[C@H](O)[C@H](F)[C@@H]2F [Compound 289, 3-[(1S,2S,3R)-2,3-difluoro-1-hydroxy-7-methylsulfonyl-indan-4-yl]oxy-5-fluoro-benzonitrile] | < 50 nM | –
27 | N#Cc1cc(F)cc(Oc2ccc3c(c2Br)C(N)C(F)(F)S3(=O)=O)c1 (stereo not shown) [Compound 376] | – | EC50 [2, 6]: > 1000 nM; IC50 [3, 7]: < 0.05 µM
28 | O=S1(=O)c2ccc(OC3CCOCC3)c(C(F)F)c2C(O)C1(F)F (stereo not shown) [Compound 400] | – | EC50 [2, 6]: > 1000 nM; IC50 [3, 7]: > 1 µM
29 | N#Cc1cc(F)cc(-c2cnc(C(F)(F)F)c3c2C[C@@H](F)[C@H]3O)c1 [Compound 471] | – | IC50 [3, 7]: 0.25 to 1 µM
30 | CCCNc1ccc(S(=O)(=O)C(F)F)c2c1CC(F)(F)[C@H]2O [Compound 532] | – | EC50 [2, 6]: 250 to 1000 nM; IC50 [3, 7]: < 0.05 µM
31 | O=S(=O)(c1ccc(OC2CC(O)C2)c2c1[C@H](O)C(F)(F)C2)C(F)(F)F (stereo partly shown) [Compound 644] | – | EC50 [2, 6]: 250 to 1000 nM
32 | O=C1CCC(Oc2ccc(S(=O)(=O)C(F)(F)F)c3c2CC(F)(F)[C@H]3O)CN1 (stereo partly shown) [Compound 719] | – | IC50 [3, 7]: > 1 µM
33 | CC(C)(C)OC(=O)NC1CC(Oc2ccc(S(=O)(=O)C(F)(F)F)c3c2CC(F)(F)[C@H]3O)C1 (stereo partly shown) [Compound 722] | – | EC50 [2, 6]: > 1000 nM
34 | O=S(=O)(c1ccc(OC2CCOCC2)c2c1[C@@H](O)C(F)(F)C2)C(F)F [Compound 782] | – | EC50 [2, 6]: 50 to 249 nM; IC50 [3, 7]: 0.05 to 0.249 µM
35 | O=C(Nc1nc2cccc(-c3ccc(CN4CCS(=O)(=O)CC4)cc3)n2n1)C1CC1 [filgotinib] | – | colon length [4]: This effect was reversed; disease activity index score ([4]; second DSS cycle ([…] DSS, 7 days), vehicle group 6-7): slight decrease in the disease activity index, but only in the later stage of the disease progression

Further lines, with some results ahead:

Row | EC50 [2, 5] | SMILES | further results
36 | < 50 nM | [2H][C@]1(O)c2c(S(C)(=O)=O)ccc(Oc3cc(F)cc(C#N)c3)c2CC1(F)F [Compound 247] | –
37 | 50 to 249 nM | CNS(=O)(=O)c1ccc(Oc2cc(F)cc(F)c2)c2c1[C@H](O)C(F)(F)C2 [Compound 251] | –
38 | 50 to 249 nM | N#Cc1cc(F)cc(Oc2ccc(S(N)(=O)=O)c3c2CC(F)(F)[C@H]3O)c1 [Compound 252] | –
39 | 50 to 249 nM | CNS(=O)(=O)c1ccc(Oc2cc(F)cc(C#N)c2)c2c1[C@H](O)C(F)(F)C2 [Compound 254] | –
40 | < 50 nM | NS(=O)(=O)c1ccc(Oc2cc(F)cc(F)c2)c2c1[C@H](O)C(F)(F)C2 [Compound 256] | –
41 | > 1000 nM | N#Cc1cc(F)cc(Oc2ccc(S(=O)(=O)C(F)(F)F)c3c2CCC3O)c1 (stereo not shown) [Compound 258] | –
42 | 250 to 1000 nM | CS(=O)(=O)c1ccc(Oc2cc(F)cc(C#N)c2)c2c1[C@H](O)[C@@H](F)C2 [Compound 271] | –
43 | 50 to 249 nM | N#Cc1cc(F)cc(Oc2ccc(S(=O)(=O)C(F)(F)F)c3c2CC(F)(F)[C@H]3N)c1 [Compound 290] | –
44 | < 50 nM | N#Cc1cc(F)cc(Oc2ccc(S(N)(=O)=O)c3c2[C@@H](F)C(F)(F)[C@H]3O)c1 [Compound 338] | –
45 | 250 to 1000 nM | N#Cc1cc(F)cc(Oc2ccc(S(N)(=O)=O)c3c2[C@H](F)C(F)(F)[C@H]3O)c1 [Compound 339] | –
